Test results taken from PMC3292765 (Chemistry & biology, 2012).
Where two headings read alike, the source gives them in different places.

Key:
p67^phox [1] = target: T1, p67^phox (Homo sapiens, UniProt P19878); assay: microscale thermophoresis with labeled recombinant protein; assay type: binding
T1 sequence (P19878 1-212): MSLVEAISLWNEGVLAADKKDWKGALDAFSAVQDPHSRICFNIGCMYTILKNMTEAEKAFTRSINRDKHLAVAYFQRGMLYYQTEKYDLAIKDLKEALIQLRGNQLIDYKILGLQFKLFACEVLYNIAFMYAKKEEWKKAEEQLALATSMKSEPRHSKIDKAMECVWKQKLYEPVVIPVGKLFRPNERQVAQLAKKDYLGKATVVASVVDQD

p67^phox [2] = target: T1, p67^phox; assay: as above; assay type: binding; remark: listed apart in the source

Molecule | Kd (p67^phox [1]) [nM] | Kd (p67^phox [2]) [nM]
O=[N+]([O-])c1cccc(C2Nc3ccc([N+](=O)[O-])cc3C3C=CCC32)c1 (centres unmarked) [compound 16, Phox-I2] | ~150 | 
Phox-I1 |  | ~100
